In ChEMBL document CHEMBL6114983 (Bioorg Med Chem, 2025) one finds IC50 data, which are given here for 1 compound.

As a reminder, the IC50 is the concentration that gives 50% inhibition.

The target in the assay is Glutaminyl-peptide cyclotransferase (Homo sapiens, UniProt Q16769).
Chain of Glutaminyl-peptide cyclotransferase (Q16769 whole entry): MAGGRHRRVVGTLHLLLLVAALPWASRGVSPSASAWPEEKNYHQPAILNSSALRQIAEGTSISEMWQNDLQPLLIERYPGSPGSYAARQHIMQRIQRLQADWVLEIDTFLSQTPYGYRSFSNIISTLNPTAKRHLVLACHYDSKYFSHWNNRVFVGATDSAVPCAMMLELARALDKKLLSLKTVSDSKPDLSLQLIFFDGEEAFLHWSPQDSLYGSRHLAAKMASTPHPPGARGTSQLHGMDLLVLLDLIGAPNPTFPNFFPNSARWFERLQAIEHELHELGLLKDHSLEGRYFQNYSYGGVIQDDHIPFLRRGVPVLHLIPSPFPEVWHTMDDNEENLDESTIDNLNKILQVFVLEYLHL

With `COc1ccc(N(C(=S)NCCCn2cncc2C)C2CCN(C)CC2)cc1OC`, the midpoint of inhibition, the IC50, lay at 3.36 nM.
